System: persistent post-viral cough
Test: Treatment of patients with persistent post-viral cough (case reports and the inventors' clinical experience)
Format: in vivo, human
Source text: As opposed to what is found in the medical literature, in the usual patient that we have observed and treated for sub-acute or chronic cough after viral respiratory infection, evidence for post-nasal drip, sinusitis, asthma, or gastroesophageal reflux has been lacking. Physical examination of the nose, throat, sinuses, and chest has been unremarkable as have chest x-ray, and simple pulmonary function tests. Antihistamines and decongestants as might be used for post-nasal drip have proven disappointing and have rarely afforded relief of the persistent cough when tried. Antibiotic treatments likewise have been effective to alleviate cough only in rare instances. […] We have been surprised by the regularity with which this treatment has proven effective.
Because the respiratory tract is a continuous conduit, topical medications can be applied to the airways surface in aerosol form. The term “aerosol” as used herein is as conventionally defined to indicate either a liquid or solid particle suspended in gas. Many chemical entities in aerosol delivery devices, both liquid and solid, have been developed and marketed for treating respiratory disorders. These include aerosol medications for application to the nose or for inhalation through the mouth. We have utilized a variety of inhaled topical corticosteroid aerosols to treat persistent post-viral cough and have found them all to be generally effective. The following are two examples of aerosols and regimens that we have found effective: • Beclovent Inhalation Aerosol (beclomethasone diprroprionate, USP): two to three sprays t.i.d. for six days. • Pulmicort Turbuhaler® 200 mcg (budesonide powder): one spray t.i.d. for six days.
The inventors have improvised treatment for protracted post-viral cough in our patients by utilizing commercially available multi-dose corticosteroid aerosol inhalers that are not indicated for that purpose. These typically provide enough chemical agent for a 29-30 day period. They are neither labeled for short-term use or for treatment of post-viral cough. While we have not encountered medicinal side effects in our treated patients, a general principal of pharmacologic treatment is to avoid overuse of medication. The desirability to minimize treatment and minimize the use of corticosteroids in particular is well recognized. On occasion, the inventors have utilized smaller size inhaler samples with fewer dosing actuations that have been available through the courtesy of pharmaceutical representatives. Although less consistently available, the devices with lesser number of actuations are considered preferable to prevent inadvertent or purposeful overuse of medication. An aerosol device containing a corticosteroid agent for treatment of about two weeks or less is preferred, and about 7 days is most preferred. It is to be noted that, lacking labeling, no inhaled corticosteroid aerosol used experimentally by the inventors comprises a “drug” to treat the persistent post-viral cough patients as herein described.
The following case reports further exemplify the present invention: • 1. A person with no previous respiratory history had initial symptoms consisting of nasal congestion, rhinorrhea, post-nasal drip, and dry cough. All symptoms but cough resolved within two week and dry cough persisted for 28 days from onset.
We have likewise found prompt response to a short course treatment of inhaled corticosteroid in these individuals, for example: […]

SMILES | subsequent resolution of cough (case 1: 2 sprays (40 mcg@) tid for six days, after one week) | recurrence of cough (case 1: 2 sprays (40 mcg@) tid for six days, no further medication required) | improvement of cough at one week (case 1: dry cough for 28 days, 2 sprays (40 mcg@) tid for six days, slight residual in AM) | recurrence of cough (case 2: 2 sprays (40 mcg@) tid for five days) | resolution of cough (case 2: cough for 25 days, 2 sprays (40 mcg@) tid for five days) | recurrence of cough (case 3: 2 sprays (40 mcg@) tid for five days) | resolution of cough (case 3: severe dry cough for 22 days, 2 sprays (40 mcg@) tid for five days) | recurrence of cough (case 4: 2 sprays (40 mcg@) tid for ten days) | resolution of cough (case 4: severe dry cough for 6 weeks, 2 sprays (40 mcg@) tid for ten days) | resolution of symptoms (case 2: five-day course, 500 mg per day, initial cold symptoms with productive cough) | improvement of cough (case 4: 500 mg per day for five days)
C[C@H]1C[C@H]2[C@@H]3CCC4=CC(=O)C=C[C@]4(C)[C@@]3(Cl)[C@@H](O)C[C@]2(C)[C@@]1(O)C(=O)CO [Beclomethasone MDI, Beclomethasone] | complete resolution | did not reoccur | significant improvement of cough | no recurrence of cough | complete resolution of cough | no recurrence | complete resolution of cough | did not reoccur | complete resolution of cough |  | 
CC[C@H]1OC(=O)[C@H](C)[C@@H](O[C@H]2C[C@@](C)(OC)[C@@H](O)[C@H](C)O2)[C@H](C)[C@@H](O[C@@H]2O[C@H](C)C[C@H](N(C)C)[C@H]2O)[C@](C)(O)C[C@@H](C)CN(C)[C@H](C)[C@@H](O)[C@]1(C)O [azithromycin] |  |  |  |  |  |  |  |  |  | all symptoms resolved with the exception of a non-productive “tickling” cough | without improvement of the cough
